Experimental data published in PMC7558026, “Exploring and applying the substrate promiscuity of a C-glycosyltransferase in the chemo-enzymatic synthesis of bioactive C-glycosides” (Nature Communications, 2020).

Columns and labels:
Type in all cases: biochemical, Aloe barbadensis
[1] = molecular target: T1, AbCGT (Aloe vera, UniProt A0A7G9P699); test: Glycosyltransferase activity assay, purified AbCGT (wild type) with aglycon acceptors and UDP-Glc; conditions: aglycon acceptor with UDP-Glc, pH 7.4, 30 °C, up to 12 h; Reaction-1 to -3
[2] = molecular target: T1, AbCGT; test: Kinetic parameters of AbCGT (wild type); conditions: acceptor varied, saturating UDP-Glc, pH 7.4, 30 °C
Protocol: The reactions terminated by the addition of 200 μL of ice-cold methanol. Subsequently, samples were centrifuged at 15,000 × g for 30 min to collect the supernatant, and aliquots were analyzed by HPLC as described above. All experiments were performed in triplicate. The value of Km was calculated with the method of Lineweaver–Burk plot.

[3] = test system: AbCGT; test: Effects of pH, temperature and divalent metal ions on AbCGT activity (phloretin 17 + UDP-Glc)
Protocol: To assay for the optimal reaction temperature, the reaction mixtures were incubated at pH 11.0 and different temperatures (15–60 °C). To test the necessity of divalent metal ions for AbCGT, BaCl2, CaCl2, CoCl2, CuCl2, FeCl2, MgCl2, MnCl2, ZnCl2, and EDTA were used individually at a final concentration of 5 mM. […] For quantification, three parallel assays were routinely carried out.

[4] = test system: AbCGT; test: as above; remark: listed apart in the source
[5] = pH 5.0, citric acid-sodium citrate buffer, reaction-1
[6] = pH 5.0, citric acid-sodium citrate buffer, reaction-2
[7] = pH 5.0, citric acid-sodium citrate buffer, reaction-3
[8] = pH 6.0, Na2HPO4-NaH2PO4 buffer, reaction-1
[9] = pH 6.0, Na2HPO4-NaH2PO4 buffer, reaction-2
[10] = pH 6.0, Na2HPO4-NaH2PO4 buffer, reaction-3
[11] = pH 6.0, citric acid-sodium citrate buffer, reaction-1
[12] = pH 6.0, citric acid-sodium citrate buffer, reaction-2
[13] = pH 6.0, citric acid-sodium citrate buffer, reaction-3
[14] = pH 7.0, Na2HPO4-NaH2PO4 buffer, reaction-1
[15] = pH 7.0, Na2HPO4-NaH2PO4 buffer, reaction-2
[16] = pH 7.0, Na2HPO4-NaH2PO4 buffer, reaction-3
[17] = pH 7.0, Tris-HCl buffer, reaction-1
[18] = pH 7.0, Tris-HCl buffer, reaction-2
[19] = pH 7.0, Tris-HCl buffer, reaction-3
[20] = pH 8.0, Tris-HCl buffer, reaction-1
[21] = pH 8.0, Tris-HCl buffer, reaction-2
[22] = pH 8.0, Tris-HCl buffer, reaction-3
[23] = pH 9.0, Na2CO3-NaHCO3 buffer, reaction-1
[24] = pH 9.0, Na2CO3-NaHCO3 buffer, reaction-2
[25] = pH 9.0, Na2CO3-NaHCO3 buffer, reaction-3
[26] = pH 9.0, Tris-HCl buffer, reaction-1
[27] = pH 9.0, Tris-HCl buffer, reaction-2
[28] = pH 9.0, Tris-HCl buffer, reaction-3
[29] = pH 10.0, Na2CO3-NaHCO3 buffer, reaction-1
[30] = pH 10.0, Na2CO3-NaHCO3 buffer, reaction-2
[31] = pH 10.0, Na2CO3-NaHCO3 buffer, reaction-3
[32] = pH 11.0, Na2CO3-NaHCO3 buffer, reaction-1
[33] = pH 11.0, Na2CO3-NaHCO3 buffer, reaction-2
[34] = pH 11.0, Na2CO3-NaHCO3 buffer, reaction-3
[35] = pH 12.0, Na2CO3-NaHCO3 buffer, reaction-1
[36] = pH 12.0, Na2CO3-NaHCO3 buffer, reaction-2
[37] = pH 12.0, Na2CO3-NaHCO3 buffer, reaction-3

T1 sequence (A0A7G9P699 entry or part of it): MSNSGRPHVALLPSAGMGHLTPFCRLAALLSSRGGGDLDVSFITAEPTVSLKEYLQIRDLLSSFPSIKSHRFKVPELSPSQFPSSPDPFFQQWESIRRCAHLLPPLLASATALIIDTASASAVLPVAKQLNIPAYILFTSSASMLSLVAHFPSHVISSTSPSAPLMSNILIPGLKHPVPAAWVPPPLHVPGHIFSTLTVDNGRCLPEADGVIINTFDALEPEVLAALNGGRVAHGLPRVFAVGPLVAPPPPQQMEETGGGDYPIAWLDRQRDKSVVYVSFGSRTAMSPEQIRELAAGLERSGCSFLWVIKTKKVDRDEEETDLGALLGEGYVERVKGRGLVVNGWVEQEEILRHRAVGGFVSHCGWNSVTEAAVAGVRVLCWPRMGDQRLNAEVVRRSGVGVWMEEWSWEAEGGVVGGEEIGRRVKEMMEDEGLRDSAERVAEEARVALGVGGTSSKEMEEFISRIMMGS

conversion rates, O,N,S-glycosylation [1]: 0% | conversion rates, di-C-glycosylation [1]: 100% | conversion rates, mono-C-glycosylation [1]: 0% | Kcat [2]: 120 min⁻¹
Structure (SMILES): O=C(CCc1ccc(O)cc1)c1c(O)cc(O)cc1O [Compound 17, phloretin]
conversion rates of Phloretin ([3]; Temperature 15, reaction-1): 11 | relative activity ([3]; Temperature 15, reaction-1): 11.0 | conversion rates of Phloretin ([3]; Temperature 15, reaction-2): 10.9 | relative activity ([3]; Temperature 15, reaction-2): 10.9 | conversion rates of Phloretin ([3]; Temperature 15, reaction-3): 12.9 | relative activity ([3]; Temperature 15, reaction-3): 12.9 | conversion rates of Phloretin ([3]; Temperature 25, reaction-1): 18.8 | relative activity ([3]; Temperature 25, reaction-1): 18.8 | conversion rates of Phloretin ([3]; Temperature 25, reaction-2): 21.4 | relative activity ([3]; Temperature 25, reaction-2): 21.4 | conversion rates of Phloretin ([3]; Temperature 25, reaction-3): 24.7 | relative activity ([3]; Temperature 25, reaction-3): 24.7 | conversion rates of Phloretin ([3]; Temperature 30, reaction-1): 39.8 | relative activity ([3]; Temperature 30, reaction-1): 39.9 | conversion rates of Phloretin ([3]; Temperature 30, reaction-2): 36.9 | relative activity ([3]; Temperature 30, reaction-2): 37.0 | conversion rates of Phloretin ([3]; Temperature 30, reaction-3): 38.5 | relative activity ([3]; Temperature 30, reaction-3): 38.6 | conversion rates of Phloretin ([3]; Temperature 35, reaction-1): 64.8 | relative activity ([3]; Temperature 35, reaction-1): 64.9 | conversion rates of Phloretin ([3]; Temperature 35, reaction-2): 57.8 | relative activity ([3]; Temperature 35, reaction-2): 57.9 | conversion rates of Phloretin ([3]; Temperature 35, reaction-3): 60.7 | relative activity ([3]; Temperature 35, reaction-3): 60.8 | conversion rates of Phloretin ([3]; Temperature 40, reaction-1): 78.1 | relative activity ([3]; Temperature 40, reaction-1): 78.3 | conversion rates of Phloretin ([3]; Temperature 40, reaction-2): 81 | relative activity ([3]; Temperature 40, reaction-2): 81.2 | conversion rates of Phloretin ([3]; Temperature 40, reaction-3): 73.2 | relative activity ([3]; Temperature 40, reaction-3): 73.3 | conversion rates of Phloretin ([3]; Temperature 45, reaction-1): 99.4 | relative activity ([3]; Temperature 45, reaction-1): 99.6 | conversion rates of Phloretin ([3]; Temperature 45, reaction-2): 100 | relative activity ([3]; Temperature 45, reaction-2): 100.2 | conversion rates of Phloretin ([3]; Temperature 45, reaction-3): 100 | relative activity ([3]; Temperature 45, reaction-3): 100.2 | conversion rates of Phloretin ([3]; Temperature 50, reaction-1): 97.7 | relative activity ([3]; Temperature 50, reaction-1): 97.9 | conversion rates of Phloretin ([3]; Temperature 50, reaction-2): 98 | relative activity ([3]; Temperature 50, reaction-2): 98.2 | conversion rates of Phloretin ([3]; Temperature 50, reaction-3): 99.1 | relative activity ([3]; Temperature 50, reaction-3): 99.3 | conversion rates of Phloretin ([3]; Temperature 55, reaction-1): 96.5 | relative activity ([3]; Temperature 55, reaction-1): 96.7 | conversion rates of Phloretin ([3]; Temperature 55, reaction-2): 95.7 | relative activity ([3]; Temperature 55, reaction-2): 95.9 | conversion rates of Phloretin ([3]; Temperature 55, reaction-3): 93.3 | relative activity ([3]; Temperature 55, reaction-3): 93.5 | conversion rates of Phloretin ([3]; Temperature 60, reaction-1): 75.4 | relative activity ([3]; Temperature 60, reaction-1): 75.6 | conversion rates of Phloretin ([3]; Temperature 60, reaction-2): 85.7 | relative activity ([3]; Temperature 60, reaction-2): 85.9 | conversion rates of Phloretin ([3]; Temperature 60, reaction-3): 80 | relative activity ([3]; Temperature 60, reaction-3): 80.2 | conversion rates of Phloretin [3, 5]: 0.2 | conversion rates of Phloretin [3, 6]: 0.1 | relative activity [3, 6]: 0.1 | conversion rates of Phloretin [3, 7]: 0.2 | relative activity [3, 7]: 0.2 | conversion rates of Phloretin [3, 8]: 23.7 | relative activity [3, 8]: 23.8 | conversion rates of Phloretin [3, 9]: 25.1 | conversion rates of Phloretin [3, 10]: 25.4 | relative activity [3, 10]: 25.5 | conversion rates of Phloretin [3, 11]: 11.7 | relative activity [3, 11]: 11.8 | conversion rates of Phloretin [3, 12]: 15.2 | relative activity [3, 12]: 15.3 | conversion rates of Phloretin [3, 13]: 13 | relative activity [3, 13]: 13.1 | conversion rates of Phloretin [3, 14]: 30.8 | relative activity [3, 14]: 30.9 | conversion rates of Phloretin [3, 15]: 28 | relative activity [3, 15]: 28.1 | conversion rates of Phloretin [3, 16]: 30.7 | relative activity [3, 16]: 30.8 | conversion rates of Phloretin [3, 17]: 34.2 | relative activity [3, 17]: 34.4 | conversion rates of Phloretin [3, 18]: 33.6 | relative activity [3, 18]: 33.8 | conversion rates of Phloretin [3, 19]: 34.8 | relative activity [3, 19]: 35.0 | conversion rates of Phloretin [3, 20]: 35 | relative activity [3, 20]: 35.2 | conversion rates of Phloretin [3, 21]: 36.1 | relative activity [3, 21]: 36.3 | conversion rates of Phloretin [3, 22]: 35.4 | relative activity [3, 22]: 35.6 | conversion rates of Phloretin [3, 23]: 53 | relative activity [3, 23]: 53.2 | conversion rates of Phloretin [3, 24]: 52.2 | relative activity [3, 24]: 52.4 | conversion rates of Phloretin [3, 25]: 53.9 | relative activity [3, 25]: 54.2 | conversion rates of Phloretin [3, 26]: 45.9 | relative activity [3, 26]: 46.1 | conversion rates of Phloretin [3, 27]: 46.5 | relative activity [3, 27]: 46.7 | conversion rates of Phloretin [3, 28]: 53 | relative activity [3, 28]: 53.2 | conversion rates of Phloretin [3, 29]: 89.2 | relative activity [3, 29]: 89.6 | conversion rates of Phloretin [3, 30]: 93 | relative activity [3, 30]: 93.4 | conversion rates of Phloretin [3, 31]: 92.7 | relative activity [3, 31]: 93.1 | conversion rates of Phloretin [3, 32]: 99.2 | relative activity [3, 32]: 99.7 | conversion rates of Phloretin [3, 33]: 100 | relative activity [3, 33]: 100.5 | conversion rates of Phloretin [3, 34]: 99.4 | relative activity [3, 34]: 99.9 | conversion rates of Phloretin [3, 35]: 0 | relative activity [3, 35]: 0.0 | conversion rates of Phloretin [3, 36]: 0 | relative activity [3, 36]: 0.0 | conversion rates of Phloretin [3, 37]: 0 | relative activity [3, 37]: 0.0 | relative activity [4, 5]: 0.2 | relative activity [4, 9]: 25.2
